Reference: US7351728B2, “Oxazolyl-aryloxyacetic acid derivatives and their use as PPAR agonists” (Eli Lilly and Company, priority 2003, dated 2008)

Columns and labels:
huPPARα = assay: Cotransfection assay in CV-1 cells, luciferase reporter (GAL4 chimeric system); assay type: cell-based, human; settings: cotransfection efficacy relative to PPARα agonist reference molecule
Experimental: DNA-dependent binding (ABCD binding) was carried out using SPA technology with PPAR receptors. Tritium-labeled PPARα and PPARγ agonists were used as radioligands for generating displacement curves and IC50 values with compounds of the invention. Cotransfection assays were carried out in CV-1 cells. The reporter plasmid contained an acylCoA oxidase (AOX) PPRE and TK promoter upstream of the luciferase reporter cDNA. Appropriate PPARs and RXRα were constitutively expressed using plasmids containing the CMV promoter. […] In order to eliminate such interference, a GAL4 chimeric system was used in which the DNA binding domain of the transfected PPAR was replaced by that of GAL4, and the GAL4 response element was utilized in place of the AOX PPRE. Cotransfection efficacy was determined relative to PPARα agonist and PPARγ agonist reference molecules. Efficacies were determined by computer fit to a concentration-response curve, or in some cases at a single high concentration of agonist (10 μM). For binding or cotransfection studies with receptors other than PPARs, similar assays were carried out using appropriate ligands, receptors, reporter constructs, etc., for that particular receptor.
These studies were carried out to evaluate the ability of compounds of the invention to bind to and/or activate various nuclear transcription factors, particularly huPPARα (“hu” indicates “human”) and huPPARγ. These studies provide in vitro data concerning efficacy and selectivity of compounds of the invention. Furthermore, binding and cotransfection data for compounds of the invention were compared with corresponding data for marketed compounds that act on either huPPARα or huPPARγ.
Binding and cotransfection data for representative compounds of the invention are compared with corresponding data for reference compounds in Table II.

db/db mice = assay: Evaluation of glucose levels in db/db mice; assay type: in vivo; settings: Mus musculus, 168 h; 30 mg/kg daily oral gavage 7 days, male db/db mice; 100% = lean values; read-out: Glucose Normalization %
Experimental: Five week old male diabetic (db/db) mice [C57BlKs/j-m +/+ Lepr(db), Jackson Laboratory, Bar Harbor, Me.] or lean littermates (db+) were housed 6 per cage (10″×20″×8″ with aspen chip bedding) with food (Purina 5015) and water available at all times. After an acclimation period of 2 weeks, animals were individually identified by ear notches, weighed, and bled via the tail vein for determination of initial glucose levels. Blood was collected (100 μl) from unfasted animals by wrapping each mouse in a towel, cutting the tip of the tail with a scalpel, and milking blood from the tail into a heparinized capillary tube (Fisher) balanced on the edge of the bench. Sample was discharged into a heparinized microtainer with gel separator (VWR) and retained on ice. Plasma was obtained after centrifugation at 4° C. and glucose measured immediately. Remaining plasma was frozen until the completion of the experiment, when glucose and triglycerides were assayed in all samples. Animals were grouped based on initial glucose levels and body weights. Beginning the following morning, mice were dosed daily by oral gavage for 7 days using a 20 gauge, 1½″ curved disposable feeding needle. Treatments were test compounds (30 mg/kg), a positive control agent (30 mg/kg) or vehicle [1% carboxymethylcellulose (w/v)/0.25% Tween80 (w/v); 0.3 ml/mouse]. On day 7, mice were weighed and bled (tail vein) 3 hours after dosing. Twenty-four hours after the 7th dose (i.e., day 8), animals were bled again (tail vein). Samples obtained from conscious animals on days 0, 7 and 8 were assayed for glucose. After the 24 hour bleed, animals were weighed and dosed for the final time. Three hours after dosing on day 8, animals were anesthetized by inhalation of isoflurane and blood obtained via cardiac puncture (0.5-0.7 ml). Whole blood was transferred to serum separator tubes, chilled on ice and permitted to clot. Serum was obtained after centrifugation at 4° C. and frozen until analysis for compound levels. After sacrifice by cervical dislocation, the liver, heart and epididymal fat pads were excised and weighed.
The animals dosed with vehicle had average triglycerides values of 170-230 mg/dl, which were reduced by the positive PPARγ control (70-120 mg/dl with a mean reduction of 50%). Male db/db mice were hyperglycemic (average glucose of 680-730 mg/dl on the 7th day of treatment), while lean animals had average glucose levels between 190-230 mg/dl.
Glucose was measured colorimetrically using commercially purchased reagents (Sigma #315-500). According to the manufacturers, the procedures were modified from published work (McGowan, M. W., Artiss, J. D., Strandbergh, D. R. & Zak, B. Clin Chem, 20:470-5 (1974) and Keston, A. Specific colorimetric enzymatic analytical reagents for glucose. Abstract of papers 129th Meeting ACS, 31C (1956).); and depend on the release of a mole of hydrogen peroxide for each mole of analyte, coupled with a color reaction first described by Trinder (Trinder, P. Determination of glucose in blood using glucose oxidase with an alternative oxygen acceptor. Ann Clin Biochem, 6:24 (1969)). The absorbance of the dye produced is linearly related to the analyte in the sample. The assays were further modified in our laboratory for use in a 96 well format. Standards (Sigma #339-11, Sigma #16-11, and Sigma #CC0534 for glucose triglycerides and total cholesterol, respectively), quality control plasma (Sigma # A2034), and samples (2 or 5 μl/well) were measured in duplicate using 200 μl of reagent. An additional aliquot of sample, pipetted to a third well and diluted in 200 μl water, provided a blank for each specimen. Plates were incubated at room temperature (18, 15, and 10 minutes for glucose, triglycerides and total cholesterol, respectively) on a plate shaker (DPC Micormix 5) and absorbance read at 500 nm (glucose and total cholesterol) or 540 nm (triglycerides) on a plate reader (Wallac Victor 1420). […]

Row | SMILES | huPPARα CTF Eff. (%) (huPPARα) | inhibition in vivo at 30 mg/kg (db/db mice)
1 | Cc1oc(-c2ccccc2)nc1CCOc1ccc(OC(C)(C)C(=O)O)cc1 [Example 1, 2-Methyl-2-{4-[2-(5-methyl-2-phenyloxazol-4-yl)ethoxy]phenoxy}propionic acid] | 72% | 38%
2 | Cc1oc(-c2cccc(Br)c2)nc1CCOc1ccc(OC(C)(C)C(=O)O)cc1 [Example 9A, 2-(4-{2-[2-(3-Bromophenyl)-5-methyloxazol-4-yl]ethoxy}phenoxy)-2-methylpropionic acid] | 82% | 86%
3 | CCc1cccc(-c2nc(CCOc3ccc(OC(C)(C)C(=O)O)cc3)c(C)o2)c1 [Example 12, 2-(4-{2-[2-(3-Ethylphenyl)-5-methyloxazol-4-yl]ethoxy}phenoxy)-2-methylpropionic acid] | 68% | 101%
4 | Cc1oc(-c2cccc(CCc3ccccc3)c2)nc1CCOc1ccc(OC(C)(C)C(=O)O)cc1 [Example 12A, 2-Methyl-2-(4-{2-[5-methyl-2-(3-phenethylphenyl)oxazol-4-yl]ethoxy}phenoxy)-propionic acid] | 74% | 51%
5 | CCc1ccc(-c2nc(CCOc3ccc(OC(C)(C)C(=O)O)cc3)c(C)o2)cc1 [Example 13, 2-(4-{2-[2-(4-Ethylphenyl)-5-methyloxazol-4-yl]ethoxy}phenoxy)-2-methylpropionic acid] | 73% | 65%
6 | Cc1oc(-c2ccc(OC3CCCCC3)cc2)nc1CCOc1ccc(OC(C)(C)C(=O)O)cc1 [Example 21, 2-(4-{2-[2-(4-Cyclohexyloxy-phenyl)-5-methyl-oxazol-4-yl]-ethoxy}-phenoxy)-2-methyl-propionic acid] | 78% | 23%
7 | Cc1cc(OCCc2nc(-c3ccccc3)oc2C)ccc1OC(C)(C)C(=O)O [Example 24, 2-Methyl-2-{2-methyl-4-[2-(5-methyl-2-phenyloxazol-4-yl)ethoxy]phenoxy}propionic acid] | 73% | 72%
8 | CCCc1cc(OCCc2nc(-c3ccccc3)oc2C)ccc1OCC(=O)O [Example 26, {4-[2-(5-methyl-2-phenyl-oxazol-4-yl)ethoxy]-2-propylphenoxy}acetic acid] | 35% | 42%
9 | CCCc1cc(OCCc2nc(-c3ccccc3)oc2C)ccc1OC(C)(C)C(=O)O [Example 26A, 2-Methyl-2-{4-[2-(5-methyl-2-phenyloxazol-4-yl)ethoxy]-2-propylphenoxy}propionic acid] | 75% | 77%
10 | CCCc1cc(OC(C)(C)C(=O)O)ccc1OCCc1nc(-c2ccccc2)oc1C [Example 27A, 2-Methyl-2-{4-[2-(5-methyl-2-phenyloxazol-4-yl)ethoxy]-3-propylphenoxy}propionic acid] | 95% | 62%
11 | CCc1cc(OCCc2nc(-c3ccccc3)oc2C)ccc1OC(C)(C)C(=O)O [Example 30A, 2-{2-Ethyl-4-[2-(5-methyl-2-phenyloxazol-4-yl)ethoxy]phenoxy}2-methylpropionic acid] | 80% | 76%
12 | Cc1oc(-c2ccccc2)nc1CCOc1ccc(OC(C)(C)C(=O)O)c(CC(C)C)c1 [Example 30C, 2-{2-Isobutyl-4-[2-(5-methyl-2-phenyloxazol-4-yl)ethoxy]phenoxy}-2-methylpropionic acid] | 67% | 48%
13 | Cc1oc(-c2ccccc2)nc1CCOc1ccc(OC(C)(C)C(=O)O)c(CCc2ccccc2)c1 [Example 30J, 2-Methyl-2-{4-[2-(5-methyl-2-phenyloxazol-4-yl)ethoxy]-2-phenethylphenoxy}propionic acid] | 90% | 58%
14 | CCCCc1cc(OC(C)(C)C(=O)O)ccc1OCCc1nc(-c2ccccc2)oc1C [Example 31F, 2-{3-Butyl-4-[2-(5-methyl-2-phenyloxazol-4-yl)ethoxy]phenoxy}-2-methylpropionic acid] | 70% | 77%
15 | Cc1oc(-c2ccccc2)nc1CCOc1ccc(OC(C)(C)C(=O)O)c(Cc2ccccc2)c1 [Example 32, 2-{2-Benzyl-4-[2-(5-methyl-2-phenyloxazol-4-yl)ethoxy]phenoxy}-2-methylpropionic acid] | 82% | 47%
16 | Cc1oc(-c2ccccc2)nc1CCOc1ccc(OC(C)(C)C(=O)O)c2ccccc12 [Example 37, 2-Methyl-2-{4-[2-(5-methyl-2-phenyl-oxazol-4-yl)-ethoxy]-naphthalen-1-yloxy}-propionic acid] | 91% | 56%
17 | Cc1oc(-c2ccccc2)nc1CCOc1ccc(OC(C)(C)C(=O)O)c2c1CCCC2 [Example 38, 2-Methyl-2-{4-[2-(5-methyl-2-phenyl-oxazol-4-yl)-ethoxy]-5,6,7,8-tetrahydro-naphthalen-1-yloxy}-propionic acid] | 80% | 38%
